According to patent US6894185B2, “Substituted chiral allosteric hemoglobin modifiers” (Allós Therapeutics, Inc., priority 1999, dated 2005):
“And” between values parts separate entries of the source, which are not always exact repeats. Equal values may be shown once.

Experiments:
[1] = molecular target: T1, hemoglobin (Homo sapiens, UniProt P68871+P69905); assay: In vitro whole blood studies (multi-point tonometry and blood gas analysis); format: cell-based; settings: for ΔP50 ± S.D. (P50 effector − P50control) / P50e (P50 value in the presence of the effector): Table VI, 2.5 mM Hb, 5.0 mM effector; for P50e (P50 value in the presence of the effector): single runs, DMSO stock
T1 construct: The whole blood samples were collected in heparinized tubes from healthy volunteers; from tissue; host or cells: human whole blood (heparinized) from healthy volunteers
T1 sequence (P69905 2-142 limits assumed): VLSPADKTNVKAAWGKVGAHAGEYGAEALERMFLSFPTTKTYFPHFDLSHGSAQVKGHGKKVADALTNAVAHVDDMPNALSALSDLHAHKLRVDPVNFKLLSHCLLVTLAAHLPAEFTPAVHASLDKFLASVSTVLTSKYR
T1 sequence (P68871 2-147 limits assumed): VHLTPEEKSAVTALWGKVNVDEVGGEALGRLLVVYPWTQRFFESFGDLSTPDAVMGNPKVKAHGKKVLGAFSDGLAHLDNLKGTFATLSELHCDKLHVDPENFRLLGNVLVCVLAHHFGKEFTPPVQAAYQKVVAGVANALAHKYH
Method: (§1) Structure-allosteric activity relationships were determined from the synthetic chiral effectors comparing the shift in the oxygen binding curve of Hb solutions using a Hemox-Analyzer. In vitro biological activity testing in the presence of plasma proteins was also performed on selected enantiomers and racemates (multi-point tonometry and blood gas analysis) to screen for candidates with potential clinical use. SAR studies compared the degree in shift in P50 values, i.e., the partial pressure of molecular oxygen necessary to half-saturate hemoglobin. An effector that decreases Hb oxygen affinity increases the P50 value relative to the control. Thus, the activity or potency of each analog could be expressed by the ratio P50 (effector)/P50(control). Tables and II and III summarize the p50 values obtained using human whole blood, while Tables IV and V summarize the P50 and the Hill coefficient values (n50) at half-saturation obtained using Hemox-analyzer. The slope of the log of the oxygen binding curves is known as the Hill coefficient. The Hill coefficient measures the degree of cooperativity in binding for an allosteric protein, the normal range for human blood is 2.7-3.2. Table VI presents the results from the whole blood studies given as a ΔP50 and Hill coefficient (n50) values for the enantiomers and racemates.
The whole blood samples were collected in heparinized tubes from healthy volunteers and stored over ice. The sodium salts of the compounds were prepared as described earlier. A 200 mM stock solution of the effector was prepared in DMSO. A 5.0 mM test solution was prepared from 50 μL of the 200 mM test solution and 1950 μL of whole blood. The blood samples were incubated in IL 237 tonometers (Instrumentation Laboratories, Inc. Lexington, Mass.) for approximately 10-12 min at 37° C. and equilibrated at three separate concentrations of O2 (20%, 40%, and 60%). After equilibration at each concentration of O2, a sample was removed via syringe and aspirated into a IL 1420 Automated Blood Gas Analyzer (Instrumentation Laboratories, Inc. Lexington, Mass.) and a IL 482 and IL 682 Co-oximeter (Instrumentation Laboratories, Inc. Lexington, Mass.) to determine the pH, pCO2, pO2 and the hemoglobin oxygen saturation values (sO2), respectively. The measured values for pO2 and sO2 at each oxygen saturation level were then subjected to a non-linear regression analysis using the program Scientist (Micromath, Salt Lake City, Utah) to calculate the P50 and Hill coefficient values.

[2] = molecular target: T2, purified stripped human adult hemoglobin (Homo sapiens, UniProt P68871+P69905); assay: Hemoglobin solution oxygen equilibrium studies (HEMOX-analyzer); format: biochemical; settings: 0.5 mM effector, 100 mM bis-Tris buffer, pH 7.2
T2 construct: using purified stripped human adult hemoglobin as described previously; from tissue
T2 sequence (P69905 2-142 limits assumed): as the sequence (P69905 2-142 limits assumed) above
T2 sequence (P68871 2-147 limits assumed): as the sequence (P68871 2-147 limits assumed) above

[3] = molecular target: T2, purified stripped human adult hemoglobin; assay: as above; format: biochemical; settings: for n50 (Hill coefficient at 50% saturation): n50 control 2.7; for P50e/P50c: ratio to P50 control with no effector (5.0 mmHg)
Method: as §1, with “Tables and II and III summarize the p50 values obtained using human whole blood, while Tables IV and V summarize the P50 and the Hill coefficient values (n50) at half-saturation obtained using Hemox-analyzer.” left out, “2.7-3.2.” for “2.7-3.2. Table VI presents the results from the whole blood studies given as a ΔP50 and Hill coefficient (n50) values for the enantiomers and racemates.”
The effectors were prepared as 10 mM stock solutions in 100 mM NaCl bis-Tris buffer, pH 7.2. After the addition of an excess of NaHCO3, the solution was warmed to 60° C. and stirred for several hours. The solutions were back titrated carefully to pH 7.2 at 25° C. prior to use. Oxygen equilibrium measurements were performed with the HEMOX-analyzer (TCS Medical products, Southampton, Pa.) using purified stripped human adult hemoglobin as described previously. 4 mL of buffer, 100 mM NaCl, 50 mM bis-Tris at pH 7.2, is added to a cuvette in the HEMOX, followed by 200 μL of the 10 mM effector stock solution. Hemoglobin is then added to achieve a final Hb concentration of […] on heme basis. Catalase (20 μg/mL) and 50 mM EDTA were added to limit oxidation of the hemes. […] The saturation of hemoglobin was determined spectrophotometrically with a dual wavelength spectrophotometer (577 nm and 586.2 nm). The solution was stirred constantly during the 45-60 min recordings. The P50 and n50 values were calculated by linear regression analysis from data points comprised between 40 and 60% oxygen saturation.

[4] = Table IV, 0.5 mM effector, pH 7.2

Compound | Whole Blood Δp50 mm Hg ([1]; Table III) [mm Hg] | melting point [°C] | also measured
CC[C@H](C)[C@H](NC(=O)C1(Oc2ccc(CC(=O)Nc3cc(C)cc(C)c3)cc2)CCCC1)C(=O)O [Compound 53, 1-[4-(((3,5-dimethylanilino)carbonyl)methyl)phenoxy]cyclopentanecarbonyl-L-isoleucine] | 13 | 127 to 128 | –
Cc1cc(C)cc(NC(=O)Cc2ccc(OC3(C(=O)N[C@@H](CCCCN)C(=O)O)CCCC3)cc2)c1 [Compound 62, 1-[4-(((3,5-dimethylanilino)carbonyl)methyl)phenoxy]cyclopentanecarbonyl-L-lysine] | −0.6 | 124 to 125 | –
Cc1cc(C)cc(NC(=O)Cc2ccc(OC3(C(=O)N[C@H](Cc4ccccc4)C(=O)O)CCCC3)cc2)c1 [Compound 44, 1-[4-(((3,5-dimethylanilino)carbonyl)methyl)phenoxy]cyclopentanecarbonyl-D-phenylalanine] | 38 | 106 to 108 | –
Cc1cc(C)cc(NC(=O)Cc2ccc(OC3(C(=O)N[C@H](CC(C)C)C(=O)O)CCCC3)cc2)c1 [Compound 40, 1-[4-(((3,5-dimethylanilino)carbonyl)methyl)phenoxy]cyclopentanecarbonyl-D-leucine] | 40 | 119 to 120 | –
Cc1cc(C)cc(NC(=O)Cc2ccc(OC3(C(=O)N[C@H](C(=O)O)C(C)C)CCCC3)cc2)c1 [Compound 43, 1-[4-(((3,5-dimethylanilino)carbonyl)methyl)phenoxy]cyclopentanecarbonyl-L-valine] | 30 | 104 to 106 | –
Cc1cc(C)cc(NC(=O)Cc2ccc(OC3(C(=O)N[C@H](Cc4c[nH]c5ccccc45)C(=O)O)CCCC3)cc2)c1 [Compound 46, 1-[4-(((3,5-dimethylanilino)carbonyl)methyl)phenoxy]cyclopentanecarbonyl-D-tryptophan] | 20 | 83 to 84 | –
Cc1cc(C)cc(NC(=O)Cc2ccc(OC3(C(=O)N[C@@H](CC(C)C)C(=O)O)CCCC3)cc2)c1 [Compound 41, 1-[4-(((3,5-dimethylanilino)carbonyl)methyl)phenoxy]cyclopentanecarbonyl-L-leucine] | 15 | 119 to 120 | –
Cc1cc(C)cc(NC(=O)Cc2ccc(OC(C)C(=O)O)cc2)c1 (single isomer, unassigned; (-)) [(−) 18, (−)-2-[4-[[(3,5-dimethylanilino)carbonyl]methyl]phenoxy]-propionic acid] | – | – | ΔP50 ± S.D. (P50 effector − P50control) [1]: 12.3 ± 0.6 mmHg; P50e (P50 value in the presence of the effector) [1]: 39.7 mmHg and 40.5 mmHg; P50e (oxygen pressure at which Hb is 50% saturated with oxygen in the presence of the effector) ([2]; Table V resolved enantiomers): 6.6 mmHg; n50 (Hill coefficient at 50% saturation) ([3]; Table V resolved enantiomers, 0.5 mM effector, pH 7.2): 2.5; P50e/P50c ([3]; Table V resolved enantiomers): 1.3
Cc1cc(C)cc(NC(=O)Cc2ccc(OC(C)C(=O)O)cc2)c1 (racemic) [Compound 18, 2-[4-[[(3,5-dimethylanilino)carbonyl]methyl]phenoxy]-propionic acid] | – | – | ΔP50 ± S.D. (P50 effector − P50control) [1]: 18.2 ± 2.6 mmHg; P50e (P50 value in the presence of the effector) [1]: 47.2 mmHg and 43.5 mmHg; P50e (oxygen pressure at which Hb is 50% saturated with oxygen in the presence of the effector) ([2]; Table IV): 9.3 mmHg; n50 (Hill coefficient at 50% saturation) [3, 4]: 2.6; P50e/P50c [3, 4]: 1.9
COCC(C)(Oc1ccc(CC(=O)Nc2cc(C)cc(C)c2)cc1)C(=O)O (stereo not shown) [Compound 10, 2-[4-[[(3,5-dimethylanilino)carbonyl]methyl]phenoxy]-3-methoxy-2-methylpropanoic acid] | – | – | Whole Blood Δp50 mm Hg ([1]; Table II): 24 mm Hg; P50e (oxygen pressure at which Hb is 50% saturated with oxygen in the presence of the effector) ([2]; Table IV): 8.4 mmHg; n50 (Hill coefficient at 50% saturation) [3, 4]: 2.4; P50e/P50c [3, 4]: 1.7
CC1CCC(Oc2ccc(CC(=O)Nc3ccc4c(c3)CCC4)cc2)(C(=O)O)C1 (stereo not shown) [Compound 5] | – | – | Whole Blood Δp50 mm Hg ([1]; Table II): 12.7 mm Hg; P50e (oxygen pressure at which Hb is 50% saturated with oxygen in the presence of the effector) ([2]; Table IV): 13 mmHg; n50 (Hill coefficient at 50% saturation) [3, 4]: 2.6; P50e/P50c [3, 4]: 2.5
Cc1cc(C)cc(NC(=O)Cc2ccc(OC3(C(=O)O)CCOC3C)cc2)c1 (stereo not shown) [Compound 2, 3-[4-[[(3,5-dimethylanifino)carbonyl]methyl]phenoxy]-2-methyltetrahydro-3-furan carboxylic acid] | – | – | Whole Blood Δp50 mm Hg ([1]; Table II): 15.2 mm Hg; P50e (oxygen pressure at which Hb is 50% saturated with oxygen in the presence of the effector) ([2]; Table IV): 7.6 mmHg; n50 (Hill coefficient at 50% saturation) [3, 4]: 2.4; P50e/P50c [3, 4]: 1.5
CSCC[C@@H](NC(=O)C1(Oc2ccc(CC(=O)Nc3cc(C)cc(C)c3)cc2)CCCC1)C(=O)O [Compound 51, 1-[4-(((3,5-dimethylanilino)carbonyl)methyl)phenoxy]cyclopentanecarbonyl-D-methionine] | 27 | 54 to 55 | –
CC1CCCC1(Oc1ccc(CC(=O)Nc2ccc3c(c2)CCC3)cc1)C(=O)O (stereo not shown) [Compound 7] | – | – | Whole Blood Δp50 mm Hg ([1]; Table II): 25.0 mm Hg; P50e (oxygen pressure at which Hb is 50% saturated with oxygen in the presence of the effector) ([2]; Table IV): 14 mmHg; n50 (Hill coefficient at 50% saturation) [3, 4]: 2.6; P50e/P50c [3, 4]: 2.8

The next lines start with results.

Whole Blood Δp50 mm Hg ([1]; Table III) [mm Hg] | melting point [°C] | Compound | also measured
22 | 117 to 118 | Cc1cc(C)cc(NC(=O)Cc2ccc(OC3(C(=O)N[C@@H](C)C(=O)O)CCCC3)cc2)c1 [Compound 39, 1-[4-(((3,5-dimethylanilino)carbonyl)methyl)phenoxy] cyclopentanecarbonyl-L-alanine] | –
17 | 71 to 72 | Cc1cc(C)cc(NC(=O)Cc2ccc(OC3(C(=O)N4CCC[C@H]4C(=O)O)CCCC3)cc2)c1 [Compound 56, 1-[4-(((3,5-dimethylanilino)carbonyl)methyl)phenoxy]cyclopentanecarbonyl-L-proline] | –
13 | 64 to 66 | Cc1cc(C)cc(NC(=O)Cc2ccc(OC3(C(=O)N[C@H](C(=O)O)[C@@H](C)O)CCCC3)cc2)c1 [Compound 58, 1-[4-(((3,5-dimethylanilino)carbonyl)methyl)phenoxy]cyclopentanecarbonyl-L-threonine] | –
5 | 58 to 59 | Cc1cc(C)cc(NC(=O)Cc2ccc(OC3(C(=O)N[C@@H](CO)C(=O)O)CCCC3)cc2)c1 [Compound 50, 1-[4-(((3,5-dimethylanilino)carbonyl)methyl)phenoxy]cyclopentanecarbonyl-L-serine] | –
16 | 58 to 59 | Cc1cc(C)cc(NC(=O)Cc2ccc(OC3(C(=O)N[C@H](CO)C(=O)O)CCCC3)cc2)c1 [Compound 49, 1-[4-(((3,5-dimethylanilino)carbonyl)methyl)phenoxy]cyclopentanecarbonyl-D-serine] | –
